# Molecular target: T1, Dioclea violacea lectin (DVL) (Macropsychanthus violaceus, UniProt I1SB09)
# T1 sequence (I1SB09 1-237): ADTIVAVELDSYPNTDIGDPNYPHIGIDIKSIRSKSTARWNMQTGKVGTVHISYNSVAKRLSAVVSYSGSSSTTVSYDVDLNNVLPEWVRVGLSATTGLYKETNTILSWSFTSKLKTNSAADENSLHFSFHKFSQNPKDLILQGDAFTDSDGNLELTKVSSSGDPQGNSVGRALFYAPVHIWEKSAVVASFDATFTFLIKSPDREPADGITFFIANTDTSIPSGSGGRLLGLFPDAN
# Assay: fluorescence microscopy of FITC-lectin binding to fixed Lutzomyia migonei midgut, lectin blocked with sugar
# Conditions: 0.1 M D-mannose, 37 °C, 30 min preincubation; carbohydrate recognition domain; FITC-labelled lectin 100 µg/mL
structure (smiles),measurement,value
OC[C@H]1OC(O)[C@@H](O)[C@@H](O)[C@@H]1O (stereo partly drawn) [D-mannose],fluorescence microscopy of FITC-lectin binding to fixed Lutzomyia migonei midgut,"when the midguts were treated with blocked DVL, a remarkable decrease in the fluorescence pattern"
